Measured values reported in patent US20090018134A1, “Compounds - 945” (AstraZeneca AB, priority 2007, published 2009).

target: T1, mTOR (Homo sapiens, UniProt P42345); experiment: In Vitro mTOR Kinase Assay (Echo), Test (a)(ii); format: biochemical; conditions: table of enzyme assay Test (a)(ii); read-out: Test (a)(ii) IC50
T1 construct: FLAG; made in house
Procedure, shortened: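 AlphaScreen read-out: biotinylated substrate phosphorylation was detected with anti-p70 S6K (T389) 1A5 antibody, Protein A acceptor and streptavidin donor beads after overnight dark incubation at room temperature. Enzyme was FLAG-mTOR 1362-2549 from stable HEK293 cells.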

T1 sequence (P42345 1362-2549): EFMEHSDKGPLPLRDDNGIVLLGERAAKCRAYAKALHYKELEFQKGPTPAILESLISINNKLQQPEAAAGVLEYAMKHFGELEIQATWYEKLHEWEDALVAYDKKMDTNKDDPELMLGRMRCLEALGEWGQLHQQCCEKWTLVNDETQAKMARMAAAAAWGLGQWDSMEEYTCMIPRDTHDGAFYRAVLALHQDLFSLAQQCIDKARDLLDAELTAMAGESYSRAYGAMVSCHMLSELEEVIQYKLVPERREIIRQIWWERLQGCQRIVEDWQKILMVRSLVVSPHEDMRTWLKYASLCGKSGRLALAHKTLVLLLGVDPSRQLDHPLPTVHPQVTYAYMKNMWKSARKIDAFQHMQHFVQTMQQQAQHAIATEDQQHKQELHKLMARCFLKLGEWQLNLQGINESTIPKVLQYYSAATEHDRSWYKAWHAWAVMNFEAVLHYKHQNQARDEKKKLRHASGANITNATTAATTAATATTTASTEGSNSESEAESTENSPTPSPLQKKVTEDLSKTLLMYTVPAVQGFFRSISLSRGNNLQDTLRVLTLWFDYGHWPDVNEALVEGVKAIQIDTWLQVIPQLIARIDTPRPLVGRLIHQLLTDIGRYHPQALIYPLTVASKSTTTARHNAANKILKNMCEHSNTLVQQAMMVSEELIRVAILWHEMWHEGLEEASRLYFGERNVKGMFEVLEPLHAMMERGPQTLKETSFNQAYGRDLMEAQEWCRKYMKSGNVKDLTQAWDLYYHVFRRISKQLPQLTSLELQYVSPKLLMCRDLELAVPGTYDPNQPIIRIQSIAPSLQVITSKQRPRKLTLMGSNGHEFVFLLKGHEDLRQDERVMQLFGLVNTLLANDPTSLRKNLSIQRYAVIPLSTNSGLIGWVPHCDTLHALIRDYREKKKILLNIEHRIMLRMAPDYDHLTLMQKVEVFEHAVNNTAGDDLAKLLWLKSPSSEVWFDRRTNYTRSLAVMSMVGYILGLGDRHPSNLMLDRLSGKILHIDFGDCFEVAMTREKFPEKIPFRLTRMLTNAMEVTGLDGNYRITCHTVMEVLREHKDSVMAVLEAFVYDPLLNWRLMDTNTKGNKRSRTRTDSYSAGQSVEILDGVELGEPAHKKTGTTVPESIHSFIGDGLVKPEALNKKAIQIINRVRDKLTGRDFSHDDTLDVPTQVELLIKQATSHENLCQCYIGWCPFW

IC50	SMILES
2.67 nM	C[C@H]1COCCN1c1cc(C2(S(=O)(=O)c3ccc(C(=O)N(C)C)cn3)CC2)nc(-c2ccc(NC(=O)NC3CC3)cc2)n1 [Example 49a]
10.4 nM	CNC(=O)Nc1ccc(-c2nc(N3CCOC[C@@H]3C)cc(C3(S(=O)(=O)c4cccnc4C(=O)N(C)C)CC3)n2)cc1 [Example 50, N,N-Dimethyl-3-[1-[2-[4-(methylcarbamoylamino)phenyl]-6-[(3S)-3-methylmorpholin-4-yl]pyrimidin-4-yl]cyclopropyl]sulfonylpyridine-2-carboxamide]
7.94 nM	C[C@H]1COCCN1c1cc(C2(S(=O)(=O)c3cccnc3C(=O)N(C)C)CC2)nc(-c2ccc(NC(=O)NC3CC3)cc2)n1 [Example 50a]
3.32 nM	CNC(=O)Nc1ccc(-c2nc(N3CCOC[C@@H]3C)cc(C3(S(=O)(=O)CCOC)CC3)n2)cc1 [Example 51, 1-[4-[4-[1-(2-Methoxyethylsulfonyl)cyclopropyl]-6-[(3S)-3-methylmorpholin-4-yl]pyrimidin-2-yl]phenyl]-3-methylurea]
18.4 nM	C[C@H]1COCCN1c1cc(C2(S(C)(=O)=O)CC2)nc(-c2ccc(NC(=O)NC3CC3)c(F)c2)n1 [Example 52, 3-cyclopropyl-1-[2-fluoro-4-[4-[(3S)-3-methylmorpholin-4-yl]-6-(1-methylsulfonylcyclopropyl)pyrimidin-2-yl]phenyl]urea]
10.3 nM	CNC(=O)Nc1ccc(-c2nc(N3CCOC[C@@H]3C)cc(C3(S(C)(=O)=O)CC3)n2)cc1F [Example 52a, 1-[2-fluoro-4-[4-[(3S)-3-methylmorpholin-4-yl]-6-(1-methylsulfonylcyclopropyl)pyrimidin-2-yl]phenyl]-3-methylurea]
30.7 nM	CCNC(=O)Nc1ccc(-c2nc(N3CCOC[C@@H]3C)cc(C3(S(C)(=O)=O)CC3)n2)cc1F [Example 52b, 3-ethyl-1-[2-fluoro-4-[4-[(3S)-3-methylmorpholin-4-yl]-6-(1-methylsulfonylcyclopropyl)pyrimidin-2-yl]phenyl]urea]
29.6 nM	C[C@H]1COCCN1c1cc(C2(S(C)(=O)=O)CC2)nc(-c2ccc(NC(=O)NCCO)c(F)c2)n1 [Example 52c, 1-[2-fluoro-4-[4-[(3S)-3-methylmorpholin-4-yl]-6-(1-methylsulfonylcyclopropyl)pyrimidin-2-yl]phenyl]-3-(2-hydroxyethyl)urea]
2.18 nM	CNC(=O)Nc1ccc(-c2nc(N3CCOC[C@@H]3C)cc(C3(S(=O)(=O)c4cccc(F)c4)CC3)n2)cc1 [Example 53, 1-[4-[4-[1-(3-Fluorophenyl)sulfonylcyclopropyl]-6-[(3S)-3-methylmorpholin-4-yl]pyrimidin-2-yl]phenyl]-3-methylurea]
2.29 nM	C[C@H]1COCCN1c1cc(C2(S(=O)(=O)c3cccc(F)c3)CC2)nc(-c2ccc(NC(=O)NC3CC3)cc2)n1 [Example 53a, 3-cyclopropyl-1-[4-[4-[1-(3-fluorophenyl)sulfonylcyclopro-pyl]-6-[(3S)-3-methylmorpholin-4-yl]pyrimidin-2-yl]phenyl]urea]
0.669 nM	C[C@H]1COCCN1c1cc(C2(S(=O)(=O)c3cccc(F)c3)CC2)nc(-c2ccc(NC(=O)NCCO)cc2)n1 [Example 53b, 1-[4-[4-[1-(3-fluorophenyl)sulfonylcyclopro-pyl]-6-[(3S)-3-methylmorpholin-4-yl]pyrimidin-2-yl]phenyl]-3-(2-hydroxyethyl)urea]
0.688 nM	C[C@H]1COCCN1c1cc(C2(S(=O)(=O)c3cccc(F)c3)CC2)nc(-c2ccc(NC(=O)NCCF)cc2)n1 [Example 53c, 3-(2-fluoroethyl)-1-[4-[4-[1-(3-fluorophenyl)sulfonylcyclopro-pyl]-6-[(3S)-3-methylmorpholin-4-yl]pyrimidin-2-yl]phenyl]urea]
3.1 nM	C[C@H]1COCCN1c1cc(C2(S(=O)(=O)c3cccc(F)c3)CC2)nc(-c2ccc(NC(=O)NCC(F)F)cc2)n1 [Example 53d, 3-(2,2-difluoroethyl)-1-[4-[4-[1-(3-fluorophenyl)sulfonylcyclopro-pyl]-6-[(3S)-3-methylmorpholin-4-yl]pyrimidin-2-yl]phenyl]urea]
1.98 nM	CCNC(=O)Nc1ccc(-c2nc(N3CCOC[C@@H]3C)cc(C3(S(=O)(=O)c4cccc(F)c4)CC3)n2)cc1 [Example 53e, 1-ethyl-3-[4-[4-[1-(3-fluorophenyl)sulfonylcyclopro-pyl]-6-[(3S)-3-methylmorpholin-4-yl]pyrimidin-2-yl]phenyl]urea]
6.34 nM	C[C@H]1COCCN1c1cc(C2(S(=O)(=O)c3cccc(F)c3)CC2)nc(-c2ccc(NC(=O)Nc3cnn(C)c3)cc2)n1 [Example 53f, 1-[4-[4-[1-(3-fluorophenyl)sulfonylcyclopro-pyl]-6-[(3S)-3-methylmorpholin-4-yl]pyrimidin-2-yl]phenyl]-3-(1-methylpyrazol-4-yl)urea]
2.17 nM	CNC(=O)Nc1ccc(-c2nc(N3CCOC[C@@H]3C)cc(C3(S(=O)(=O)c4ccccc4C)CC3)n2)cc1 [Example 54, 3-Methyl-1-[4-[4-[(3S)-3-methylmorpholin-4-yl]-6-[1-(2-methylphenyl)sulfonylcyclopropyl]pyrimidin-2-yl]phenyl]urea]
9.18 nM	Cc1ccccc1S(=O)(=O)C1(c2cc(N3CCOC[C@@H]3C)nc(-c3ccc(NC(=O)NC4CC4)cc3)n2)CC1 [Example 54a, 3-cyclopropyl-1-[4-[4-[(3S)-3-methylmorpholin-4-yl]-6-[1-(2-methylphenyl)sulfonylcyclo-propyl]pyrimidin-2-yl]phenyl]urea]
3.17 nM	Cc1ccccc1S(=O)(=O)C1(c2cc(N3CCOC[C@@H]3C)nc(-c3ccc(NC(=O)NCCO)cc3)n2)CC1 [Example 54b, 3-(2-hydroxyethyl)-1-[4-[4-[(3S)-3-methylmorpholin-4-yl]-6-[1-(2-methylphenyl)sulfonylcyclo-propyl]pyrimidin-2-yl]phenyl]urea]
4.53 nM	Cc1ccccc1S(=O)(=O)C1(c2cc(N3CCOC[C@@H]3C)nc(-c3ccc(NC(=O)NCCF)cc3)n2)CC1 [Example 54c, 3-(2-fluoroethyl)-1-[4-[4-[(3S)-3-methylmorpholin-4-yl]-6-[1-(2-methylphenyl)sulfonylcyclo-propyl]pyrimidin-2-yl]phenyl]urea]
8.82 nM	Cc1ccccc1S(=O)(=O)C1(c2cc(N3CCOC[C@@H]3C)nc(-c3ccc(NC(=O)NCC(F)F)cc3)n2)CC1 [Example 54d, 3-(2,2-difluoroethyl)-1-[4-[4-[(3S)-3-methylmorpholin-4-yl]-6-[1-(2-methylphenyl)sulfonylcyclo-propyl]pyrimidin-2-yl]phenyl]urea]
7.62 nM	CCNC(=O)Nc1ccc(-c2nc(N3CCOC[C@@H]3C)cc(C3(S(=O)(=O)c4ccccc4C)CC3)n2)cc1 [Example 54e, 1-ethyl-3-[4-[4-[(3S)-3-methylmorpholin-4-yl]-6-[1-(2-methylphenyl)sulfonylcyclo-propyl]pyrimidin-2-yl]phenyl]urea]
10.7 nM	Cc1ccccc1S(=O)(=O)C1(c2cc(N3CCOC[C@@H]3C)nc(-c3ccc(NC(=O)Nc4cnn(C)c4)cc3)n2)CC1 [Example 54f, 1-[4-[4-[(3S)-3-methylmorpholin-4-yl]-6-[1-(2-methylphenyl)sulfonylcyclo-propyl]pyrimidin-2-yl]phenyl]-3-(1-methylpyrazol-4-yl)urea]
2.96 nM	CNC(=O)Nc1ccc(-c2nc(N3CCOC[C@@H]3C)cc(C3(S(=O)(=O)c4cn(C)nc4C)CC3)n2)cc1 [Example 55, 1-[4-[4-[1-(1,3-Dimethylpyrazol-4-yl)sulfonylcyclopropyl]-6-[(3S)-3-methylmorpholin-4-yl]pyrimidin-2-yl]phenyl]-3-methylurea]
21.3 nM	Cc1nn(C)cc1S(=O)(=O)C1(c2cc(N3CCOC[C@@H]3C)nc(-c3ccc(NC(=O)NC4CC4)cc3)n2)CC1 [Example 55a, 3-cyclopropyl-1-[4-[4-[1-(1,3-dimethylpyrazol-4-yl)sulfonylcyclopropyl]-6-[(3S)-3-methylmorpholin-4-yl]pyrimidin-2-yl]phenyl]urea]
16.1 nM	Cc1nn(C)cc1S(=O)(=O)C1(c2cc(N3CCOC[C@@H]3C)nc(-c3ccc(NC(=O)NCCO)cc3)n2)CC1 [Example 55b, 1-[4-[4-[1-(1,3-dimethylpyrazol-4-yl)sulfonylcyclopropyl]-6-[(3S)-3-methylmorpholin-4-yl]pyrimidin-2-yl]phenyl]-3-(2-hydroxyethyl)urea]
18.9 nM	Cc1nn(C)cc1S(=O)(=O)C1(c2cc(N3CCOC[C@@H]3C)nc(-c3ccc(NC(=O)NCCF)cc3)n2)CC1 [Example 55c, 1-[4-[4-[1-(1,3-dimethylpyrazol-4-yl)sulfonylcyclopropyl]-6-[(3S)-3-methylmorpholin-4-yl]pyrimidin-2-yl]phenyl]-3-(2-fluoroethyl)urea]
35.1 nM	Cc1nn(C)cc1S(=O)(=O)C1(c2cc(N3CCOC[C@@H]3C)nc(-c3ccc(NC(=O)NCC(F)F)cc3)n2)CC1 [Example 55d, 3-(2,2-difluoroethyl)-1-[4-[4-[1-(1,3-dimethylpyrazol-4-yl)sulfonylcyclopropyl]-6-[(3S)-3-methylmorpholin-4-yl]pyrimidin-2-yl]phenyl]urea]
20.4 nM	CCNC(=O)Nc1ccc(-c2nc(N3CCOC[C@@H]3C)cc(C3(S(=O)(=O)c4cn(C)nc4C)CC3)n2)cc1 [Example 55e, 3-[4-[4-[1-(1,3-dimethylpyrazol-4-yl)sulfonylcyclopropyl]-6-[(3S)-3-methylmorpholin-4-yl]pyrimidin-2-yl]phenyl]-1-ethylurea]
15.6 nM	Cc1nn(C)cc1S(=O)(=O)C1(c2cc(N3CCOC[C@@H]3C)nc(-c3ccc(NC(=O)Nc4cnn(C)c4)cc3)n2)CC1 [Example 55f, 1-[4-[4-[1-(1,3-dimethylpyrazol-4-yl)sulfonylcyclopropyl]-6-[(3S)-3-methylmorpholin-4-yl]pyrimidin-2-yl]phenyl]-3-(1-methylpyrazol-4-yl)urea]
2.31 nM	O=C(Nc1ccc(-c2nc(N3CCOCC3)cc(C3(S(=O)(=O)c4ccccn4)CC3)n2)cc1)NC1CC1 [Example 56, 3-Cyclopropyl-1-[4-[4-morpholin-4-yl-6-(1-Pyridin-2-ylsulfonylcyclopropyl)pyrimidin-2-yl]phenyl]urea]
